Assay results published in article PMC13625682, “Inhibitor fluorination pattern modulates protein surface dynamics and chemically induced dimerization” (Chemical Science, 2026).
Read-outs that look alike come from different tables or passages of the source.

Columns and labels:
HEK293 cells = assay: HEK293 cell survival assay (resazurin); type: cell-based; settings: Homo sapiens; HEK293, 24 h incubation
Procedure: Trypanosome and HEK293 Cell Survival Assays […]
(§1) 1-5 in human embryonic kidney (HEK293) was determined with a resazurin assay, which is based on the reduction of resazurin to fluorescent resorufin by living cells.6 HEK293 cells were maintained in DMEM high glucose supplemented with 10% FBS, 1% penicillin/streptomycin and 1% L-glutamine at 37 °C and 5% CO2. For the toxicity screen, 40000 cells per well were seeded in a 48 well plate (400 µL medium/well) and incubated at 37 °C for 24 hours before treatment with inhibitors 1-5. Cells were treated with 0.1 µM, 0.3 µM, 0.7 µM, 1 µM, 3 µM, 7 µM, 10 µM, 30 µM, 70 µM and 100 µM of the respective inhibitor, DMSO treatment served as negative control. The overall DMSO concentration was kept at 1 vol.% DMSO per well. After 24 hours of treatment, the medium was exchanged with a medium/resazurin mixture (0.015 mg/mL resazurin per well) and the cells were incubated for 3 h at 37 °C before transferring 100 µl medium from each well into a black opaque-walled 96-well plate. Fluorescence was directly measured using a CLARIOstar Plus reader (BMG Labtech GmbH, Ortenberg, Germany) with a 545-20 nm excitation / 600-40 nm emission filter. Each experiment was done in biological quadruplets and cell viability was analyzed in comparison to the DMSO control by plotting relative fluorescence units (RFU) against inhibitor concentration (Prism, Graphpad). A fifty percent decrease in relative fluorescence indicated the compound concentration where half of the HEK293 cells had died, which […]
(§2) In Vitro Tpx Activity Assay and Inactivation Kinetics
(§3) To reconstitute the peroxide clearance cascade (PCC), its components (at final concentrations of 360 µM NADPH, 0.1 U/mL TR, 110 µM TS2, 5 µM Tpx, 180 nM Px, 100 µM H2O2) were mixed in a total volume of 200 µL in a 10 mm quartz cuvette. First, 15 µL NADPH (4.8 mM in TR buffer (40 mM HEPES pH 7.5, 1 mM Na-EDTA), 10 µL TR (2 U/mL in TR buffer), 10 µL TS2 (2.2 mM in sterile filtered, deionized

[1] = test system: T. brucei brucei 449 Lister 427 parasites; assay: Trypanosome cell survival assay (ATPlite luminescence); type: cell-based, Trypanosoma brucei brucei; settings: for Selectivity index (24 h), EC50 HEK293 cells divided by EC50 T. brucei: HEK293 vs T. brucei brucei 449, 24 h; for EC50: Trypanosoma brucei
Procedure: Trypanosome and HEK293 Cell Survival Assays
Half maximal effective concentration (EC50) values of compounds 1- 5 against T. brucei brucei 449 Lister 427 parasites were determined with an ATPlite Luminescence assay as described previously.4,5 The EC50 was defined as the compound concentration at which a fifty percent decrease in relative […]
as §1, §2, §3

Tpx [2] = test system: T1, Tpx; assay: SEC-MALS of Tpx/inhibitor complexes; type: binding, Trypanosoma brucei; settings: for SEC-MALS Mw of Tpx/inhibitor complex: 100 µM analyte, value ± measurement error
T1 construct: with residue G1 and end with N144; GAMG (TEV-cleavage scar that replaces Met1); Trx-His6 (thioredoxin fusion with His6 tag) (N, cleaved yes); made in house; host or cells: E. coli BL21-Gold(DE3)
Procedure: Size Exclusion Chromatography Coupled To Multi-Angle Light Scattering (SEC-MALS) To determine the oligomeric state of Tpx/inhibitor complexes by SEC-MALS, 100 µM of purified Tpx/inhibitor complexes were applied to a SEC column (Superdex75 10/300, GE Healthcare) in Tpx buffer (25 mM NaPi pH 7.5, 150 mM NaCl) at a flow rate of 0.5 ml/min at room temperature. The molecular weights of the eluting proteins were measured using a Dawn Heleos 8+ light scattering detector and an Optilab T-rEX refractive index detector (Wyatt Technologies). Data were analyzed with […]

Tpx [3] = test system: T1, Tpx; assay: In vitro Tpx activity assay: reconstituted peroxide clearance cascade, NADPH consumption followed photometrically; type: biochemical, Trypanosoma brucei; settings: for second-order rate constant k2nd of irreversible Tpx inhibition: 5 µM Tpx, 25 °C, slope of kobs vs inhibitor concentration; for speed of Tpx inactivation: Tpx-equimolar concentrations (5 µM)
Tpx WT = molecular target: T2, Tpx WT (Trypanosoma brucei brucei, UniProt O77404); assay: Dilution ITC of covalent Tpx/inhibitor complexes (dimer dissociation); type: binding; settings: according to dimer KD
T2 construct: with residue G1 and end with N144; GAMG (TEV-cleavage scar that replaces Met1); Trx-His6 (thioredoxin fusion with His6 tag) (N, cleaved yes); made in house; host or cells: E. coli BL21-Gold(DE3)
T2 sequence (O77404 with tags, fused parts or gaps limits assumed): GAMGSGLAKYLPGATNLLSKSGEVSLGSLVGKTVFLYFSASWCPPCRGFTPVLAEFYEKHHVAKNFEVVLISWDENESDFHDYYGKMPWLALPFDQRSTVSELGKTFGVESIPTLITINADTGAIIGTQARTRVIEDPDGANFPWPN
Procedure: Isothermal Titration Calorimetry (ITC)
Dissociation coefficients (K D) of dimeric Tpx/inhibitor complexes were determined via dilution ITC following our previously established protocol. 4 Purified complexes in Tpx buffer were titrated to Tpx buffer, and the heat signals of each injection was recorded. To observe dimer dissociation, measurements were conducted with 78 µM (Tpx/para-CFT), 122 µM (Tpx/meta-CFT), 277 µM (Tpx/ortho-CFT), 821 µM (Tpx/CtFT), and 176 µM (Tpx/CPT). A MicroCal PEAQ-ITC Automated […]
1, 3 and 5. After the initial wait time of 2 min, 19 serial injections of 2 μL with a spacing of 3 min where performed. The reference power was set to 11 μcal sec-1 and stirring speed to 750 rpm. A MicroCal PEAQ-ITC (Malvern Panalytical) with the same experimental setup was used to determine the KD value of covalent Tpx WT complexes with meta-CFT (2, 10 injections), and CtFT (4, 20 injections). Each titration was performed in a technical triplicate, and controls included water to water and unmodified Tpx to buffer titrations. Transferability between instruments was checked by repeating the Tpx/para -CFT […]
titration. […]

Tryparedoxin = molecular target: T3, Tryparedoxin (Trypanosoma brucei, UniProt O77404); assay: dilution ITC
T3 chain: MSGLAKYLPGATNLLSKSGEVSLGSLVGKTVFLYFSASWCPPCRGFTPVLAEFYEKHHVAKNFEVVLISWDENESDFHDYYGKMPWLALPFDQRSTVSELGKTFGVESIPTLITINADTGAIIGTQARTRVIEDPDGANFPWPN

[4] = bloodstream form T. brucei brucei 449, 24 h incubation, read-out: EC50 (24 h)
[5] = bloodstream form T. brucei brucei 449, 48 h incubation, read-out: EC50 (48 h)

**Q.** Which EC50 (HEK293 cells) does the source give for `O=c1[nH]c(CCl)nc2scc(-c3ccccc3)c12` [CPT, 2-(chloromethyl)-5-phenylthieno[2,3-d]pyrimidin-4(3H)-one] here?
**A.** The EC50 was 4900 ± 600 nM.

**Q.** And the “Selectivity index (24 h), EC50 HEK293 cells divided by EC50 T. brucei” value [1]?
**A.** The value was 8.2 ± 4.2.

**Q.** What about the EC50 [1, 4] of the same molecule?
**A.** The EC50 was 600 ± 300 nM.

**Q.** And the EC50 [1, 5]?
**A.** Its EC50 is 1400 ± 400 nM.

**Q.** What about the “SEC-MALS Mw of Tpx/inhibitor complex” value (Tpx [2]) of the same molecule?
**A.** The value was 19.5 ± 0.6 kDa.

**Q.** For `O=c1[nH]c(CCl)nc2scc(-c3ccc(C(F)(F)F)cc3)c12` [CtFT, 2-(chloromethyl)-5-(4-(trifluoromethyl)phenyl)thieno[2,3-d]pyrimidin-4(3H)-one], which “second-order rate constant k2nd of irreversible Tpx inhibition” value (Tpx [3]) is on record?
**A.** The value was 1870 ± 17 M⁻¹ s⁻¹.

**Q.** And the “speed of Tpx inactivation” value (Tpx [3])?
**A.** The value was “fastest”.

**Q.** And the EC50 (HEK293 cells)?
**A.** Its EC50 is 3900 ± 300 nM.

**Q.** And the “Selectivity index (24 h), EC50 HEK293 cells divided by EC50 T. brucei” value [1]?
**A.** Its value is 1.8 ± 0.5.

**Q.** And the EC50 [1, 4]?
**A.** The EC50 was 2200 ± 600 nM.

**Q.** And the EC50 [1, 5]?
**A.** Its EC50 is 2500 ± 600 nM.

**Q.** And the “oligomeric state of inhibitor-bound Tpx by SEC-MALS” value (Tpx [2]; 100 µM analyte concentration)?
**A.** The value was “remained monomeric”.

**Q.** What about the “SEC-MALS Mw of Tpx/inhibitor complex” value (Tpx [2]) of the same molecule?
**A.** Its value is 16.6 ± 0.7 kDa.

**Q.** For `O=c1[nH]c(CCl)nc2scc(-c3cccc(F)c3)c12` [meta-CFT, 2-(chloromethyl)-5-(3-fluorophenyl)thieno[2,3-d]pyrimidin-4(3H)-one], which “second-order rate constant k2nd of irreversible Tpx inhibition” value (Tpx [3]) is on record?
**A.** The value was 933 ± 17 M⁻¹ s⁻¹.

**Q.** And the “speed of Tpx inactivation” value (Tpx [3])?
**A.** The value was “slowest”.

**Q.** What about the EC50 (HEK293 cells) of the same molecule?
**A.** The EC50 was 6500 ± 500 nM.

**Q.** What about the “Selectivity index (24 h), EC50 HEK293 cells divided by EC50 T. brucei” value [1] of the same molecule?
**A.** Its value is 5.0 ± 1.6.

**Q.** And the EC50 [1, 4]?
**A.** Its EC50 is 1300 ± 400 nM.

**Q.** What about the EC50 [1, 5] of the same molecule?
**A.** The EC50 was 1100 ± 500 nM.

**Q.** What about the “SEC-MALS Mw of Tpx/inhibitor complex” value (Tpx [2]) of the same molecule?
**A.** Its value is 23.6 ± 0.9 kDa.

**Q.** How did the “speed of Tpx inactivation” value (Tpx [3]) turn out when `O=c1[nH]c(CCl)nc2scc(-c3ccccc3F)c12` [ortho-CFT, 2-(chloromethyl)-5-(2-fluorophenyl)thieno[2,3-d]-pyrimidin-4(3H)-one] was run?
**A.** Its value is “fastest”.

**Q.** What about the EC50 (HEK293 cells) of the same molecule?
**A.** Its EC50 is 5000 ± 600 nM.

**Q.** What about the “portion of Tpx WT/inhibitor complex dimeric” value (Tpx WT; 750 µM analyte) of the same molecule?
**A.** Its value is 87%.

**Q.** And the “Selectivity index (24 h), EC50 HEK293 cells divided by EC50 T. brucei” value [1]?
**A.** Its value is 5.0 ± 1.6.

**Q.** What about the EC50 [1, 4] of the same molecule?
**A.** The EC50 was 1000 ± 300 nM.

**Q.** What about the EC50 [1, 5] of the same molecule?
**A.** The EC50 was 800 ± 300 nM.

**Q.** And the “SEC-MALS Mw of Tpx/inhibitor complex” value (Tpx [2])?
**A.** The value was 17.5 ± 0.9 kDa.

**Q.** What does the source list for `O=c1[nH]c(CCl)nc2scc(-c3ccc(F)cc3)c12` [para-CFT, 2-(chloromethyl)-5-(4-fluorophenyl)-thieno[2,3-d]pyrimidin-4(3H)-one]?
**A.** EC50 (HEK293 cells): 3900 ± 400 nM; portion of Tpx WT/inhibitor complex dimeric (Tpx WT; 100 µM analyte): 85%; Selectivity index (24 h), EC50 HEK293 cells divided by EC50 T. brucei [1]: 3.0 ± 0.8; EC50 [1, 4]: 1300 ± 300 nM; EC50 [1, 5]: 1500 ± 300 nM; SEC-MALS Mw of Tpx/inhibitor complex (Tpx [2]): 21.3 ± 1.1 kDa

B1: Tryparedoxin (protein)
chain: MSGLAKYLPGATNLLSKSGEVSLGSLVGKTVFLYFSASWCPPCRGFTPVLAEFYEKHHVAKNFEVVLISWDENESDFHDYYGKMPWLALPFDQRSTVSELGKTFGVESIPTLITINADTGAIIGTQARTRVIEDPDGANFPWPN
modifications: meta-CFT covalently bound at C40
**Q.** For B1, which Kd (Tryparedoxin) is on record?
**A.** The Kd was 3700 nM.

B2: Tryparedoxin (protein)
chain: MSGLAKYLPGATNLLSKSGEVSLGSLVGKTVFLYFSASWCPPCRGFTPVLAEFYEKHHVAKNFEVVLISWDENESDFHDYYGKMPWLALPFDQRSTVSELGKTFGVESIPTLITINADTGAIIGTQARTRVIEDPDGANFPWPN
modifications: CtFT covalently bound at C40
**Q.** Which Kd (Tryparedoxin) does the source give for B2 here?
**A.** Its Kd is 410000 nM.
